Data from the NIST ThermoML archive (doi:10.1016/j.tca.2013.09.032).
± gives the expanded uncertainty stated by the source.

Experiment: molar heat capacity at constant pressure
Conditions: 101.33 kPa, Crystal, Vacuum adiabatic calorimetry

## Cc1cc2nc3c(=O)[nH]c(=O)nc-3n(C[C@H](O)[C@H](O)[C@H](O)CO)c2cc1C [riboflavin]
1 K
  molar heat capacity at constant pressure: 0.0523 ± 0.011 J/K/mol
2 K
  molar heat capacity at constant pressure: 0.209 ± 0.013 J/K/mol
3 K
  molar heat capacity at constant pressure: 0.47 ± 0.016 J/K/mol
4 K
  molar heat capacity at constant pressure: 0.836 ± 0.02 J/K/mol
5 K
  molar heat capacity at constant pressure: 1.31 ± 0.024 J/K/mol
6 K
  molar heat capacity at constant pressure: 1.88 ± 0.03 J/K/mol
6.75 K
  molar heat capacity at constant pressure: 2.55 ± 0.03 J/K/mol
7 K
  molar heat capacity at constant pressure: 2.65 ± 0.035 J/K/mol
7.32 K
  molar heat capacity at constant pressure: 2.83 ± 0.04 J/K/mol
8 K
  molar heat capacity at constant pressure: 3.25 ± 0.039 J/K/mol
8.41 K
  molar heat capacity at constant pressure: 3.45 ± 0.04 J/K/mol
8.94 K
  molar heat capacity at constant pressure: 4.08 ± 0.05 J/K/mol
9 K
  molar heat capacity at constant pressure: 4.08 ± 0.047 J/K/mol
9.34 K
  molar heat capacity at constant pressure: 4.48 ± 0.05 J/K/mol
9.68 K
  molar heat capacity at constant pressure: 4.81 ± 0.05 J/K/mol
10 K
  molar heat capacity at constant pressure: 5.1 ± 0.054 J/K/mol
10.15 K
  molar heat capacity at constant pressure: 5.25 ± 0.05 J/K/mol
10.36 K
  molar heat capacity at constant pressure: 5.42 ± 0.06 J/K/mol
10.98 K
  molar heat capacity at constant pressure: 6.23 ± 0.06 J/K/mol
11.56 K
  molar heat capacity at constant pressure: 7.05 ± 0.07 J/K/mol
11.98 K
  molar heat capacity at constant pressure: 7.68 ± 0.07 J/K/mol
13.16 K
  molar heat capacity at constant pressure: 9.25 ± 0.08 J/K/mol
15 K
  molar heat capacity at constant pressure: 12 ± 0.1 J/K/mol
15.03 K
  molar heat capacity at constant pressure: 12.22 ± 0.1 J/K/mol
16.92 K
  molar heat capacity at constant pressure: 15.24 ± 0.11 J/K/mol
18.77 K
  molar heat capacity at constant pressure: 18.25 ± 0.12 J/K/mol
20 K
  molar heat capacity at constant pressure: 20.35 ± 0.13 J/K/mol
20.65 K
  molar heat capacity at constant pressure: 21.38 ± 0.13 J/K/mol
22.79 K
  molar heat capacity at constant pressure: 25.35 ± 0.14 J/K/mol
24.95 K
  molar heat capacity at constant pressure: 29.29 ± 0.15 J/K/mol
25 K
  molar heat capacity at constant pressure: 29.5 ± 0.15 J/K/mol
27.13 K
  molar heat capacity at constant pressure: 33.81 ± 0.15 J/K/mol
29.37 K
  molar heat capacity at constant pressure: 38.36 ± 0.15 J/K/mol
30 K
  molar heat capacity at constant pressure: 39.49 ± 0.13 J/K/mol
31.61 K
  molar heat capacity at constant pressure: 42.49 ± 0.13 J/K/mol
33.91 K
  molar heat capacity at constant pressure: 47.31 ± 0.14 J/K/mol
35 K
  molar heat capacity at constant pressure: 49.35 ± 0.14 J/K/mol
36.25 K
  molar heat capacity at constant pressure: 51.78 ± 0.15 J/K/mol
38.52 K
  molar heat capacity at constant pressure: 56.45 ± 0.16 J/K/mol
40 K
  molar heat capacity at constant pressure: 59.26 ± 0.16 J/K/mol
40.96 K
  molar heat capacity at constant pressure: 60.98 ± 0.17 J/K/mol
43.38 K
  molar heat capacity at constant pressure: 65.91 ± 0.18 J/K/mol
45 K
  molar heat capacity at constant pressure: 68.91 ± 0.18 J/K/mol
45.72 K
  molar heat capacity at constant pressure: 70.28 ± 0.18 J/K/mol
48.12 K
  molar heat capacity at constant pressure: 74.84 ± 0.19 J/K/mol
50 K
  molar heat capacity at constant pressure: 78.34 ± 0.2 J/K/mol
50.55 K
  molar heat capacity at constant pressure: 79.52 ± 0.2 J/K/mol
52.99 K
  molar heat capacity at constant pressure: 83.98 ± 0.21 J/K/mol
55.45 K
  molar heat capacity at constant pressure: 88.71 ± 0.22 J/K/mol
57.93 K
  molar heat capacity at constant pressure: 93.42 ± 0.23 J/K/mol
60 K
  molar heat capacity at constant pressure: 97.31 ± 0.24 J/K/mol
60.48 K
  molar heat capacity at constant pressure: 98.18 ± 0.24 J/K/mol
62.91 K
  molar heat capacity at constant pressure: 102.6 ± 0.3 J/K/mol
65.4 K
  molar heat capacity at constant pressure: 106.9 ± 0.3 J/K/mol
67.89 K
  molar heat capacity at constant pressure: 110.9 ± 0.3 J/K/mol
70 K
  molar heat capacity at constant pressure: 114.4 ± 0.3 J/K/mol
70.37 K
  molar heat capacity at constant pressure: 115.1 ± 0.3 J/K/mol
72.85 K
  molar heat capacity at constant pressure: 119.2 ± 0.3 J/K/mol
75.32 K
  molar heat capacity at constant pressure: 123.3 ± 0.3 J/K/mol
77.79 K
  molar heat capacity at constant pressure: 128.2 ± 0.3 J/K/mol
80 K
  molar heat capacity at constant pressure: 132 ± 0.3 J/K/mol
80.34 K
  molar heat capacity at constant pressure: 132.4 ± 0.3 J/K/mol
82.75 K
  molar heat capacity at constant pressure: 137.1 ± 0.3 J/K/mol
83.48 K
  molar heat capacity at constant pressure: 138.3 ± 0.3 J/K/mol
85.22 K
  molar heat capacity at constant pressure: 141.4 ± 0.3 J/K/mol
86.72 K
  molar heat capacity at constant pressure: 144.2 ± 0.3 J/K/mol
88.86 K
  molar heat capacity at constant pressure: 147.9 ± 0.3 J/K/mol
89.48 K
  molar heat capacity at constant pressure: 148.9 ± 0.3 J/K/mol
90 K
  molar heat capacity at constant pressure: 149.6 ± 0.4 J/K/mol
92.71 K
  molar heat capacity at constant pressure: 153.8 ± 0.4 J/K/mol
95.7 K
  molar heat capacity at constant pressure: 158.4 ± 0.4 J/K/mol
98.7 K
  molar heat capacity at constant pressure: 162.9 ± 0.4 J/K/mol
100 K
  molar heat capacity at constant pressure: 165.2 ± 0.4 J/K/mol
101.67 K
  molar heat capacity at constant pressure: 167.8 ± 0.4 J/K/mol
104.65 K
  molar heat capacity at constant pressure: 172.4 ± 0.4 J/K/mol
107.64 K
  molar heat capacity at constant pressure: 177.1 ± 0.4 J/K/mol
110 K
  molar heat capacity at constant pressure: 180.4 ± 0.4 J/K/mol
110.63 K
  molar heat capacity at constant pressure: 181.6 ± 0.4 J/K/mol
113.62 K
  molar heat capacity at constant pressure: 185.8 ± 0.4 J/K/mol
116.63 K
  molar heat capacity at constant pressure: 190.1 ± 0.4 J/K/mol
119.63 K
  molar heat capacity at constant pressure: 194.3 ± 0.4 J/K/mol
120 K
  molar heat capacity at constant pressure: 195 ± 0.4 J/K/mol
122.64 K
  molar heat capacity at constant pressure: 198.5 ± 0.4 J/K/mol
125.66 K
  molar heat capacity at constant pressure: 202.7 ± 0.4 J/K/mol
128.69 K
  molar heat capacity at constant pressure: 207.3 ± 0.4 J/K/mol
130 K
  molar heat capacity at constant pressure: 209.2 ± 0.4 J/K/mol
131.7 K
  molar heat capacity at constant pressure: 211.6 ± 0.4 J/K/mol
134.72 K
  molar heat capacity at constant pressure: 215.9 ± 0.4 J/K/mol
137.75 K
  molar heat capacity at constant pressure: 220.3 ± 0.4 J/K/mol
140 K
  molar heat capacity at constant pressure: 223.3 ± 0.4 J/K/mol
140.77 K
  molar heat capacity at constant pressure: 224.6 ± 0.4 J/K/mol
143.8 K
  molar heat capacity at constant pressure: 229 ± 0.4 J/K/mol
146.83 K
  molar heat capacity at constant pressure: 233 ± 0.4 J/K/mol
149.86 K
  molar heat capacity at constant pressure: 237.2 ± 0.4 J/K/mol
150 K
  molar heat capacity at constant pressure: 237.5 ± 0.4 J/K/mol
152.9 K
  molar heat capacity at constant pressure: 241.7 ± 0.4 J/K/mol
155.94 K
  molar heat capacity at constant pressure: 246 ± 0.5 J/K/mol
158.98 K
  molar heat capacity at constant pressure: 250.1 ± 0.5 J/K/mol
160 K
  molar heat capacity at constant pressure: 251.7 ± 0.5 J/K/mol
162.02 K
  molar heat capacity at constant pressure: 254.2 ± 0.5 J/K/mol
165.06 K
  molar heat capacity at constant pressure: 258.6 ± 0.5 J/K/mol
168.1 K
  molar heat capacity at constant pressure: 263 ± 0.5 J/K/mol
170 K
  molar heat capacity at constant pressure: 265.7 ± 0.5 J/K/mol
171.14 K
  molar heat capacity at constant pressure: 267.3 ± 0.5 J/K/mol
174.19 K
  molar heat capacity at constant pressure: 271.6 ± 0.5 J/K/mol
177.26 K
  molar heat capacity at constant pressure: 276 ± 0.5 J/K/mol
180 K
  molar heat capacity at constant pressure: 279.4 ± 0.5 J/K/mol
180.3 K
  molar heat capacity at constant pressure: 279.9 ± 0.5 J/K/mol
183.34 K
  molar heat capacity at constant pressure: 283.9 ± 0.5 J/K/mol
186.38 K
  molar heat capacity at constant pressure: 288.1 ± 0.5 J/K/mol
189.42 K
  molar heat capacity at constant pressure: 291.9 ± 0.5 J/K/mol
190 K
  molar heat capacity at constant pressure: 293 ± 0.5 J/K/mol
192.46 K
  molar heat capacity at constant pressure: 296.2 ± 0.5 J/K/mol
195.5 K
  molar heat capacity at constant pressure: 300.5 ± 0.5 J/K/mol
198.54 K
  molar heat capacity at constant pressure: 305 ± 0.5 J/K/mol
200 K
  molar heat capacity at constant pressure: 306.7 ± 0.5 J/K/mol
201.58 K
  molar heat capacity at constant pressure: 308.7 ± 0.5 J/K/mol
204.61 K
  molar heat capacity at constant pressure: 313 ± 0.5 J/K/mol
207.64 K
  molar heat capacity at constant pressure: 317.5 ± 0.5 J/K/mol
210 K
  molar heat capacity at constant pressure: 320.5 ± 0.5 J/K/mol
210.68 K
  molar heat capacity at constant pressure: 321.4 ± 0.5 J/K/mol
213.72 K
  molar heat capacity at constant pressure: 325.8 ± 0.5 J/K/mol
216.77 K
  molar heat capacity at constant pressure: 330 ± 0.5 J/K/mol
219.81 K
  molar heat capacity at constant pressure: 334 ± 0.5 J/K/mol
220 K
  molar heat capacity at constant pressure: 334.7 ± 0.5 J/K/mol
222.86 K
  molar heat capacity at constant pressure: 338.3 ± 0.5 J/K/mol
225.93 K
  molar heat capacity at constant pressure: 342.3 ± 0.5 J/K/mol
228.98 K
  molar heat capacity at constant pressure: 346.6 ± 0.6 J/K/mol
230 K
  molar heat capacity at constant pressure: 348.2 ± 0.6 J/K/mol
232.02 K
  molar heat capacity at constant pressure: 350.4 ± 0.6 J/K/mol
235.06 K
  molar heat capacity at constant pressure: 355 ± 0.6 J/K/mol
238.11 K
  molar heat capacity at constant pressure: 359.4 ± 0.6 J/K/mol
240 K
  molar heat capacity at constant pressure: 361.5 ± 0.6 J/K/mol
241.15 K
  molar heat capacity at constant pressure: 363.5 ± 0.6 J/K/mol
244.2 K
  molar heat capacity at constant pressure: 367.7 ± 0.6 J/K/mol
247.25 K
  molar heat capacity at constant pressure: 371.5 ± 0.6 J/K/mol
250 K
  molar heat capacity at constant pressure: 375.1 ± 0.6 J/K/mol
250.29 K
  molar heat capacity at constant pressure: 375.6 ± 0.6 J/K/mol
253.34 K
  molar heat capacity at constant pressure: 379.8 ± 0.6 J/K/mol
256.38 K
  molar heat capacity at constant pressure: 383.9 ± 0.6 J/K/mol
259.42 K
  molar heat capacity at constant pressure: 388.4 ± 0.6 J/K/mol
260 K
  molar heat capacity at constant pressure: 389.1 ± 0.6 J/K/mol
262.46 K
  molar heat capacity at constant pressure: 392.5 ± 0.6 J/K/mol
265.5 K
  molar heat capacity at constant pressure: 396.6 ± 0.6 J/K/mol
268.54 K
  molar heat capacity at constant pressure: 400.6 ± 0.6 J/K/mol
270 K
  molar heat capacity at constant pressure: 403 ± 0.6 J/K/mol
271.58 K
  molar heat capacity at constant pressure: 404.8 ± 0.6 J/K/mol
273.15 K
  molar heat capacity at constant pressure: 407.4 ± 0.6 J/K/mol
274.65 K
  molar heat capacity at constant pressure: 409.2 ± 0.6 J/K/mol
277.69 K
  molar heat capacity at constant pressure: 413.5 ± 0.6 J/K/mol
280 K
  molar heat capacity at constant pressure: 416.6 ± 0.6 J/K/mol
280.72 K
  molar heat capacity at constant pressure: 417.4 ± 0.6 J/K/mol
283.75 K
  molar heat capacity at constant pressure: 421.5 ± 0.6 J/K/mol
286.78 K
  molar heat capacity at constant pressure: 425.5 ± 0.6 J/K/mol
289.8 K
  molar heat capacity at constant pressure: 429.8 ± 0.6 J/K/mol
290 K
  molar heat capacity at constant pressure: 429.9 ± 0.6 J/K/mol
292.82 K
  molar heat capacity at constant pressure: 434 ± 0.6 J/K/mol
295.84 K
  molar heat capacity at constant pressure: 438.2 ± 0.6 J/K/mol
298.15 K
  molar heat capacity at constant pressure: 441.1 ± 0.6 J/K/mol
298.86 K
  molar heat capacity at constant pressure: 442.2 ± 0.6 J/K/mol
302.37 K
  molar heat capacity at constant pressure: 447.3 ± 0.7 J/K/mol
306.36 K
  molar heat capacity at constant pressure: 453.1 ± 0.7 J/K/mol
310 K
  molar heat capacity at constant pressure: 458.6 ± 0.7 J/K/mol
310.36 K
  molar heat capacity at constant pressure: 459.1 ± 0.7 J/K/mol
314.34 K
  molar heat capacity at constant pressure: 464.5 ± 0.7 J/K/mol
318.32 K
  molar heat capacity at constant pressure: 470 ± 0.7 J/K/mol
320 K
  molar heat capacity at constant pressure: 472.1 ± 0.7 J/K/mol
322 K
  molar heat capacity at constant pressure: 474.1 ± 0.7 J/K/mol
322.29 K
  molar heat capacity at constant pressure: 474.7 ± 0.7 J/K/mol
